According to PMC6838683, “Discovery of Human Signaling Systems: Pairing Peptides to G Protein-Coupled Receptors” (Cell, 2019):
Each block holds one compound with its values, some of them ahead of it. Residues, ends and D or L forms follow the SMILES beside them.

What was measured:
Format in all cases: cell-based
[1] = molecular target: T1, BB3 (Homo sapiens, UniProt P32247); assay: Dynamic mass redistribution (DMR), concentration-response
T1 construct: hIL-2Ra signal peptide (N); expressed in transfected cells
T1 sequence (P32247 2-399 limits assumed): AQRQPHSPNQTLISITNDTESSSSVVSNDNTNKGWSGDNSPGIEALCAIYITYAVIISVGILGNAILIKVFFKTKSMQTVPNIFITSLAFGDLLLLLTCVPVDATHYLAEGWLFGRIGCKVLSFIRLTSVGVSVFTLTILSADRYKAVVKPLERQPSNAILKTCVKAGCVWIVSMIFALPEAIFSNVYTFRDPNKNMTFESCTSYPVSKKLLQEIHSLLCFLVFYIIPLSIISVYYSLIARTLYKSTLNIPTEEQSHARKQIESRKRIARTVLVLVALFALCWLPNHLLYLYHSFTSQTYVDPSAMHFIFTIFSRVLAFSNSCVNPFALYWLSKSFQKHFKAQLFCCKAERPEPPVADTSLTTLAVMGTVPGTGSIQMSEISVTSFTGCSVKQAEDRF

[2] = molecular target: T1, BB3; assay: Real-time receptor internalization (TR-FRET), concentration-response
[3] = molecular target: T1, BB3; assay: IP1 accumulation (Gq/11), HTRF
[4] = molecular target: GPR55 (Homo sapiens, UniProt Q9Y2T6); assay: Dynamic mass redistribution (DMR), concentration-response; set-up: hIL-2Ra signal peptide (N); expressed in transfected cells; conditions: receptor GPR55; mean, SEM and n (2-4); read-out: DMR assays pEC50 (converted)
GPR55, sequence (Q9Y2T6 2-319 limits assumed): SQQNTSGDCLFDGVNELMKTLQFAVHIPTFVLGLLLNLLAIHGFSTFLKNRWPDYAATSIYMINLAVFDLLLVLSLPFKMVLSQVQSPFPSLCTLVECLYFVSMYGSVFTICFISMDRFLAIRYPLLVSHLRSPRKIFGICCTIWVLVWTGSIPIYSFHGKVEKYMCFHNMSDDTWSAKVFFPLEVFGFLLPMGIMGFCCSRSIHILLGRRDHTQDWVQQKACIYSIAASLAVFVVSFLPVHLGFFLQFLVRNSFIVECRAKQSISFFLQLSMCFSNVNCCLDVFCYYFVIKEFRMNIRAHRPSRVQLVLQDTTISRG
Protocol: 48 hr prior to parallel assaying, SNAP-tagged oGPCR cells were plated (10,000 cells/well) in fibronectin-coated 384-well Epic biosensor microplates (Corning) and poly-D-lysine coated white 384-well plates (for internalization assays). SNAP- GLP-1 receptor was plated alongside orphan receptor cells as an internal assay control for internalization assays. Receptor-expression was induced with 0.1 μg/ml doxycycline.
DMR assays provide a single integrated readout of ligand-dependent cellular response, utilizing an optical biosensor in specialized microplates to detect wavelength shifts of reflected light as it passes through the biosensor and the lower portion of the cell (∼150-200 nm). As a signal pathway agnostic approach, DMR assays are well-suited to the study of GPCRs ([Fang et al., 2008], [Schröder et al., 2011]). The mass redistribution response (Δ picometer (pm)) likely reflects a number of intracellular events, including cytoskeletal rearrangement, protein trafficking and receptor internalization. Orphan receptor-expressing cells were gently washed twice with assay buffer (HBSS with 1 mM CaCl2, 1 mM MgCl2, 20 mM HEPES, 0.01% pluronic F-68, pH 7.4) containing 0.1% DMSO and cells were equilibrated for 90 min at 22°C in the EPIC Benchtop (BT) System (Corning) to establish a stable DMR signal. After 3-5 min baseline recordings, peptides (10 μM) were added in duplicate wells using an electronic 384-channel Viaflo pipette (Integra Biosciences, Switzerland) and DMR responses were measured for 60 min at 22°C. 100 nM norepinephrine was included as an internal assay control to assess the cellular DMR response via endogenously-expressed adrenoceptors in the TREx 293 cells. Real-time data were processed using the BT to column converter MS-Excel macro (Corning) and analyzed in GraphPad Prism 7.0. DMR recordings in peptide screening experiments were buffer and solvent corrected and the area under the curve (AUC) was quantified. For subsequent validation experiments, peptides were diluted in assay buffer containing 0.1% DMSO and DMR assays were performed as above. […] Data represent mean ± standard error of the mean (SEM) from at least 3 biologically independent experiments.

[5] = molecular target: T2, GPR1 (Homo sapiens, UniProt P46091); assay: β-arrestin recruitment (PathHunter); conditions: receptor GPR1; mean, SEM and n (2-3); read-out: b-arrestin recruitment assays (PathHunter) pEC50 (converted)
T2 sequence (P46091 1-355): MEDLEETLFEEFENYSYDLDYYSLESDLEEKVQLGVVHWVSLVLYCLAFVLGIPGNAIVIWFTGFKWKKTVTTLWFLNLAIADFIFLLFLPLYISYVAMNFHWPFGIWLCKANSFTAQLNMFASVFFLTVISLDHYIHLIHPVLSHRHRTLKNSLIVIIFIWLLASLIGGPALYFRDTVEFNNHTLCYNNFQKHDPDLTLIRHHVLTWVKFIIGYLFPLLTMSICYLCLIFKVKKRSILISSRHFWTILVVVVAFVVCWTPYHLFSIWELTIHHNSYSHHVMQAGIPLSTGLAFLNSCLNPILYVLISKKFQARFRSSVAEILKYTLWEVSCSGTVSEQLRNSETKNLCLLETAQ
Protocol: PathHunter eXpress Assays (DiscoverX) were performed in 384-well format according to the manufacturer’s recommendations. GPR1 cells were incubated with peptides for 90 min and luminescence measured using an EnSpire 2300 Multimode plate reader (PerkinElmer).

[6] = DMR assays pEC50, receptor BB3, mean, SEM and n (3)
[7] = receptor BB3, mean, SEM and n (3), read-out: Internalization assays pEC50 (converted)
[8] = IP1 accumulation assays pEC50, receptor BB3, mean, SEM and n (2-4)
[9] = receptor BB3, mean, SEM and n (3), read-out: DMR assays pEC50 (converted)
[10] = receptor BB3, mean, SEM and n (2-4), read-out: IP1 accumulation assays pEC50 (converted)
[11] = receptor BB3, mean, SEM and n (3)

Compound: CSCC[C@H](NC(=O)[C@H](Cc1ccccc1)NC(=O)[C@H](Cc1cnc[nH]1)NC(=O)CNC(=O)[C@@H](NC(=O)[C@H](C)NC(=O)[C@H](Cc1c[nH]c2ccccc12)NC(=O)[C@H](CC(C)C)NC(=O)[C@H](CC(N)=O)NC(=O)CN)[C@@H](C)O)C(N)=O [59 resynthesized]
EC50 [1, 6]: 27.5 nM
EC50 [2, 7]: 1550 nM
EC50 [3, 8]: 525 nM

Compound: CC[C@H](C)[C@H](NC(=O)[C@H](CCCCN)NC(=O)[C@H](CO)NC(=O)[C@H](C)NC(=O)[C@H](CCCNC(=N)N)NC(=O)[C@H](CO)NC(=O)[C@H](CCCNC(=N)N)NC(=O)[C@@H]1CCCN1C(=O)[C@H](CCC(=O)O)NC(=O)[C@@H]1CCCN1C(=O)[C@H](CC(C)C)NC(=O)[C@H](CC(=O)O)NC(=O)[C@H](Cc1c[nH]c2ccccc12)NC(=O)[C@H](CO)NC(=O)[C@H](CC(C)C)NC(=O)[C@@H]1CCCN1C(=O)[C@H](C)N)C(=O)N[C@@H](CCCNC(=N)N)C(=O)N[C@H](C(=O)N[C@@H](Cc1c[nH]cn1)C(=O)N[C@@H](CO)C(=O)N[C@@H](CCCNC(=N)N)C(=O)NCC(=O)N[C@@H](CC(N)=O)C(=O)N[C@@H](CC(C)C)C(=O)N[C@@H](Cc1c[nH]c2ccccc12)C(=O)N[C@@H](C)C(=O)N[C@H](C(=O)NCC(=O)N[C@@H](Cc1c[nH]cn1)C(=O)N[C@@H](Cc1ccccc1)C(=O)N[C@@H](CCSC)C(N)=O)[C@@H](C)O)C(C)C [59.1 (Phoenix)] (H-APLSWDLPEPRSRASKIRVHSRGNLWATGHFM-NH2)
EC50 [1, 9]: 49 nM
EC50 [2, 7]: 646 nM
EC50 [3, 10]: 224 nM

Compound: CC(C)C[C@H](NC(=O)[C@H](CCCCN)NC(=O)[C@H](CCC(N)=O)NC(=O)[C@@H](NC(=O)[C@H](CCCCN)NC(=O)[C@H](CO)NC(=O)[C@H](Cc1ccc(O)cc1)NC(=O)[C@H](Cc1c[nH]cn1)NC(=O)[C@H](Cc1ccccc1)NC(=O)[C@H](CC(C)C)NC(=O)[C@@H](N)Cc1ccccc1)[C@@H](C)O)C(N)=O [67 resynthesized] (H-FLFHYSKTQKL-NH2)
EC50 [1, 9]: 2690 nM
EC50 [2, 7]: 34700 nM
EC50 [3, 10]: 1660 nM

Compound: CSCC[C@H](NC(=O)[C@H](Cc1ccccc1)NC(=O)CNC(=O)CNC(=O)[C@@H](N)Cc1ccc(O)cc1)C(=O)N[C@@H](CCCNC(=N)N)C(=O)N[C@@H](CCCNC(=N)N)C(=O)N[C@H](C(=O)NCC(=O)N[C@@H](CCCNC(=N)N)C(=O)N1CCC[C@H]1C(=O)N[C@@H](CCC(=O)O)C(=O)N[C@@H](Cc1c[nH]c2ccccc12)C(=O)N[C@@H](Cc1c[nH]c2ccccc12)C(=O)N[C@@H](CCSC)C(=O)N[C@@H](CC(=O)O)C(=O)N[C@@H](Cc1ccc(O)cc1)C(=O)N[C@@H](CCC(N)=O)C(=O)N[C@@H](CCCCN)C(=O)N[C@@H](CCCNC(=N)N)C(=O)N[C@@H](Cc1ccc(O)cc1)C(=O)NCC(=O)NCC(=O)N[C@@H](Cc1ccccc1)C(=O)N[C@@H](CC(C)C)C(=O)O)C(C)C [158 resynthesized] (H-YGGFMRRVGRPEWWMDYQKRYGGFL-OH)
EC50 [1, 6]: 110000 nM
EC50 ([2]; Internalization assays pEC50): 3890 nM
EC50 [3, 8]: 3720 nM

Compound: CC(C)C[C@H](NC(=O)[C@H](Cc1ccccc1)NC(=O)CNC(=O)CNC(=O)[C@@H](N)Cc1ccc(O)cc1)C(=O)O [158.2 (Phoenix)]
EC50 [1]: 245 nM
EC50 [2]: 4680 nM
EC50 [3]: 15.8 nM

Compound: CC(C)C[C@H](NC(=O)[C@H](CCCCN)NC(=O)[C@H](CCC(N)=O)NC(=O)[C@@H](NC(=O)[C@H](CCCCN)NC(=O)[C@H](CO)NC(=O)[C@H](Cc1ccc(O)cc1)NC(=O)[C@H](Cc1c[nH]cn1)NC(=O)[C@H](Cc1ccccc1)NC(=O)[C@H](CC(C)C)NC(=O)[C@@H](N)Cc1ccccc1)[C@@H](C)O)C(N)=O [Neuromedin U pre-pro_(1-11)] (H-FLFHYSKTQKL-NH2)
EC50 ([1]; BB3, mean, SEM and n, read-out: pEC50, DMR (peak) (converted)): 2290 nM
EC50 ([2]; BB3, mean, SEM and n, read-out: pEC50, Internalization (AUC) (converted)): 31600 nM
EC50 ([3]; BB3, mean, SEM and n, read-out: pEC50, IP1 (converted)): 2190 nM

EC50 [4]: 25100 nM
Compound: CC(C)C[C@H](NC(=O)[C@H](CCCNC(=N)N)NC(=O)[C@@H](N)CCCCN)C(=O)NCC(=O)N[C@@H](CCC(=O)O)C(=O)N[C@@H](CC(C)C)C(=O)N[C@@H](Cc1ccccc1)C(=O)N[C@@H](CC(N)=O)C(=O)N1CCC[C@H]1C(=O)N[C@@H](Cc1ccc(O)cc1)C(=O)N[C@@H](Cc1ccc(O)cc1)C(=O)N[C@@H](CC(=O)O)C(=O)N1CCC[C@H]1C(=O)N[C@@H](CC(C)C)C(=O)N[C@@H](CCC(N)=O)C(=O)N[C@@H](Cc1c[nH]c2ccccc12)C(=O)N[C@@H](CCCCN)C(=O)N[C@@H](CO)C(=O)N[C@@H](CO)C(=O)N[C@@H](Cc1c[nH]cn1)C(=O)N[C@@H](Cc1ccccc1)C(=O)N[C@@H](CCC(=O)O)C(=O)O [Peptide 143.1] (H-KRLGELFNPYYDPLQWKSSHFE-OH)

Compound: CSCC[C@H](NC(=O)[C@H](Cc1c[nH]c2ccccc12)NC(=O)[C@H](Cc1c[nH]c2ccccc12)NC(=O)[C@H](CCC(=O)O)NC(=O)[C@@H]1CCCN1C(=O)[C@H](CCCNC(=N)N)NC(=O)CNC(=O)[C@@H](N)C(C)C)C(=O)N[C@@H](CC(=O)O)C(=O)N[C@@H](Cc1ccc(O)cc1)C(=O)N[C@@H](CCC(N)=O)C(=O)N[C@@H](CCCCN)C(=O)N[C@@H](CCCNC(=N)N)C(=O)N[C@@H](Cc1ccc(O)cc1)C(=O)NCC(=O)NCC(=O)N[C@@H](Cc1ccccc1)C(=O)N[C@@H](CC(C)C)C(=O)O [Peptide 158.4] (H-VGRPEWWMDYQKRYGGFL-OH)
EC50 [1]: 8710 nM
EC50 [2]: 10200 nM
EC50 [3]: 16200 nM

Compound: CSCC[C@H](NC(=O)[C@H](Cc1c[nH]c2ccccc12)NC(=O)[C@H](Cc1c[nH]c2ccccc12)NC(=O)[C@H](CCC(=O)O)NC(=O)[C@@H]1CCCN1)C(=O)N[C@@H](CC(=O)O)C(=O)N[C@@H](Cc1ccc(O)cc1)C(=O)N[C@@H](CCC(N)=O)C(=O)N[C@@H](CCCCN)C(=O)N[C@@H](CCCNC(=N)N)C(=O)N[C@@H](Cc1ccc(O)cc1)C(=O)NCC(=O)NCC(=O)N[C@@H](Cc1ccccc1)C(=O)N[C@@H](CC(C)C)C(=O)O [Peptide 158.6] (H-PEWWMDYQKRYGGFL-OH)
EC50 [1]: 832 nM
EC50 [2]: 9550 nM
EC50 [3]: 31600 nM

Compound: CSCC[C@H](NC(=O)[C@H](CC(C)C)NC(=O)[C@H](Cc1cnc[nH]1)NC(=O)CNC(=O)[C@@H](NC(=O)[C@H](C)NC(=O)[C@H](Cc1c[nH]c2ccccc12)NC(=O)[C@H](Cc1cnc[nH]1)NC(=O)[C@H](CC(N)=O)NC(=O)CN)C(C)C)C(N)=O [Peptide 167.1]
EC50 [1, 9]: 490 nM
EC50 [2, 7]: 14500 nM
EC50 [3, 10]: 2510 nM
EC50 [5]: 22900 nM

Compound: FLFHYSKTQKL [67 original]
DMR assays Emax (peak or AUC) [1, 11]: 199
Internalization assays Emax (AUC) [2, 11]: 14.6
IP1 accumulation assays Emax ([3]; receptor BB3, mean, SEM and n (2-4)): 62.1 nM
